Test results taken from patent publication US12336991B2, “Factor XIIA inhibitors” (UNIVERSITY OF LEEDS, priority 2018, dated 2025).

Legend:
Type in all cases: biochemical
FXIIa = biological target: T1, FXIIa (Homo sapiens, UniProt P00748); experiment: Determination of Factor XIIa inhibition, chromogenic substrate S-2302 assay; details: human FXIIa alpha
T1 sequence (P00748 373-615 limits assumed): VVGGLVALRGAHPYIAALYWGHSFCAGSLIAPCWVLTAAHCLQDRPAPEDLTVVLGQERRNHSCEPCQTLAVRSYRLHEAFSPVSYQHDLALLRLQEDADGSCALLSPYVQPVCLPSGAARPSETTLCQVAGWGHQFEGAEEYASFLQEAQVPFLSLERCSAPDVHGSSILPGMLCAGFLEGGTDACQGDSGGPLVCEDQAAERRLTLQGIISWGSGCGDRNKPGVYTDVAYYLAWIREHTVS
T1 sequence (P00748 20-372 partner limits assumed): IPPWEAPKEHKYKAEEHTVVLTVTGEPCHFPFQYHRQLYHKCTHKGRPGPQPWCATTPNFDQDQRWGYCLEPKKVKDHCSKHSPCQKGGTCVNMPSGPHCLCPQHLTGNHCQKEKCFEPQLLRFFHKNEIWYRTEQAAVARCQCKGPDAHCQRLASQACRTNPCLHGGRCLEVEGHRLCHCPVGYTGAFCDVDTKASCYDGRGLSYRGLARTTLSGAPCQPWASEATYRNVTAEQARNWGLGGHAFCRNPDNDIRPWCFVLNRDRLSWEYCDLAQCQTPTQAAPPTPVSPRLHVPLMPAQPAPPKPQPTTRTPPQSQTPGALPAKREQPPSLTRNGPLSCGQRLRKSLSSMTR
Summary of the method: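 FXIIa (10 nM) preincubated with compound 10 min at 37° C. in 50 mM Tris, 137 mM NaCl pH 7.4, 5% DMSO, top concentration 500 μM, then S-2302 added ([…]). Absorbance at 405 nm read kinetically for 3 h; IC50 from initial rates, converted to Ki by Cheng-Prusoff.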

thrombin = biological target: T2, thrombin (Homo sapiens, UniProt P00734); experiment: Determination of selectivity: thrombin inhibition, chromogenic substrate GPR assay; details: fold selectivity for FXIIa over thrombin
T2 construct: FXa (5 nM) and thrombin (5 nM)
Summary of the method: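 Thrombin (5 nM) preincubated with compound 10 min at 37 °C in 50 mM Tris, 137 mM NaCl, pH 7.4, 5% DMSO, then GPR substrate ([…]) added. Absorbance at 405 nm read kinetically for 3 h; IC50 from initial rates, converted to Ki via Ki=IC50/(1+[S]/Km).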

FXa = FXa (Homo sapiens, UniProt P00742); experiment: Determination of selectivity: FXa inhibition, chromogenic substrate S2765 assay; details: fold selectivity for FXIIa over FXa
Summary of the method: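 Human FXa (5 nM) preincubated with compound (top 500 μM, 5% DMSO) 10 min at 37 °C in 50 mM Tris, 137 mM NaCl pH 7.4, then S2765 ([…]) added; A405 kinetics over 3 h at 37 °C. IC50 from initial rates, converted to Ki via Cheng-Prusoff.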

Sequence of FXa (P00742 235-488 limits assumed): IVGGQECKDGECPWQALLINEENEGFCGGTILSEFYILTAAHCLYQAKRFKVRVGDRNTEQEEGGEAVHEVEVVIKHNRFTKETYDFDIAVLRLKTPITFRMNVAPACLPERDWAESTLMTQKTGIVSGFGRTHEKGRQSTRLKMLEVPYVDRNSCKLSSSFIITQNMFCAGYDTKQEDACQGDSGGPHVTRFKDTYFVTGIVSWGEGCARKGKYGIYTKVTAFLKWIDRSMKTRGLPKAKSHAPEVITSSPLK
Sequence of FXa (P00742 41-179 partner limits assumed): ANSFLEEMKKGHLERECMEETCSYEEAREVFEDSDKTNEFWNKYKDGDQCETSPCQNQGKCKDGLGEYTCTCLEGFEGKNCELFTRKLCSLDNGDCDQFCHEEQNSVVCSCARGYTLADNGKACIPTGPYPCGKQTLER

Row | SMILES | Ki (FXIIa) [µM] | Thrombin (human)/FXIIa alpha (human) (thrombin) | FXa (human)/FXIIa alpha (human) (FXa)
1 | NCc1ccc(CNC(=O)[C@@H]2CCCN2C(=O)[C@H](N)CCC(=O)N2CCC3CC32)cc1 (stereo partly drawn) [Example M00929] | > 2 | + (fold selectivity values less than 10) | ∘∘
2 | Cn1nc(Cl)c2cc(CNC(=O)[C@@H]3C[C@@H](Cc4ccncc4)CN3C(=O)[C@H](N)CCC(=O)N3CCCC3)ccc21 [Example M05241] | < 0.2 | ++ (fold selectivity value of 10 to 100) | ∘∘∘
3 | COc1ccc(C[C@@H]2C[C@@H](C(=O)NCc3ccc4c(c3)nnn4C)N(C(=O)[C@H]3C[C@@H](c4ccccc4)CN3)C2)cc1F [Example M05352] | 0.2 to 2 | +++ (fold selectivity values greater than 100) | ∘∘∘
4 | COc1ccc(C[C@@H]2C[C@@H](C(=O)NCc3cc4cnccc4[nH]3)N(C(=O)[C@H](N)CCC(=O)N3CCCC3)C2)cc1 [Example M00957] | < 0.2 | +++ (fold selectivity values greater than 100) | ∘∘∘
5 | COc1ccc(C[C@@H]2C[C@@H](C(=O)NCc3ccc4c(c3)nnn4C)N(C(=O)[C@H](N)CC3CCCc4ccccc43)C2)cc1 (stereo partly drawn) [Example M05413] | 0.2 to 2 | ++ (fold selectivity value of 10 to 100) | ∘∘∘
6 | NCc1ccc(CNC(=O)[C@@H]2CCCN2C(=O)[C@H](N)CCN2CCCCC2)cc1 [Example M00801] | > 2 | ++ (fold selectivity value of 10 to 100) | ∘∘
7 | Cn1nnc2cc(CNC(=O)[C@@H]3C[C@H](N4CCN(Cc5ccccc5)CC4)CN3C(=O)[C@H](N)CCc3ccccc3)ccc21 [Example M05200, (2S,4S)-1-((R)-2-Amino-4-phenyl-butyryl)-4-(4-benzyl-piperazin-1-yl)-pyrrolidine-2-carboxylic acid (1-methyl-1H-benzotriazol-5-ylmethyl)-amide] | > 2 | ++ (fold selectivity value of 10 to 100) | ∘∘
8 | Nc1nccc2cc(CNC(=O)[C@@H]3C[C@@H](c4ccccc4)CN3C(=O)[C@H](N)CCC(=O)N3CCCC3)ccc12 [Example M05282] | 0.2 to 2 | ++ (fold selectivity value of 10 to 100) | ∘
9 | Cn1nnc2cc(CNC(=O)[C@@H]3C[C@H](C(F)(F)F)CN3C(=O)[C@H](N)CCC(=O)N3CCCC3)ccc21 [Example M05139] | > 2 | +++ (fold selectivity values greater than 100) | ∘∘∘
10 | Cn1nnc2cc(CNC(=O)[C@@H]3C[C@@H](Cc4ccccc4Cl)CN3C(=O)[C@H]3C[C@@H](c4ccccc4)CN3)ccc21 [Example M05333] | > 2 | ++ (fold selectivity value of 10 to 100) | ∘
11 | Cn1ncc2cc(CNC(=O)[C@@H]3C[C@@H](Cc4cccnc4)CN3C(=O)[C@H](N)CCC(=O)N3CCCC3)ccc21 [Example M05228] | 0.2 to 2 | +++ (fold selectivity values greater than 100) | ∘∘∘
12 | Cn1nnc2cc(CNC(=O)[C@@H]3C[C@H](C(F)(F)F)CN3C(=O)[C@H](N)CCc3ccccc3)ccc21 [Example M05102] | > 2 | ++ (fold selectivity value of 10 to 100) | ∘∘
13 | COc1ccc(C[C@@H]2C[C@@H](C(=O)NCc3ccc4c(Cl)nn(C)c4c3)N(C(=O)[C@H](N)CCC(=O)N3CCCC3)C2)cc1 [Example M05449] | < 0.2 | +++ (fold selectivity values greater than 100) | ∘∘∘
14 | COc1ccc(C[C@@H]2C[C@@H](C(=O)NCc3ccc4c(c3)nnn4C)N(C(=O)[C@H](N)CCC(=O)N3CCNC(=O)C3)C2)cc1 [Example M05451] | < 0.2 | +++ (fold selectivity values greater than 100) | ∘∘∘
15 | Nc1cc(CNC(=O)[C@@H]2C[C@H](NC(=O)c3ccccc3)CN2C(=O)[C@H](N)CCc2ccccc2)ccn1 [Example M05142] | 0.2 to 2 | + (fold selectivity values less than 10) | ∘∘
16 | COc1ccc(C[C@@H]2C[C@@H](C(=O)NCc3ccc4c(c3)nnn4C)N(C(=O)[C@H](N)CC(O)c3ccccc3)C2)cc1 (stereo partly drawn) [Example M05379] | 0.2 to 2 | +++ (fold selectivity values greater than 100) | ∘∘∘
17 | COc1ccc(C[C@@H]2C[C@@H](C(=O)NCc3ccc4c(c3)nnn4C)N(C(=O)[C@H]3C[C@@H](N4CCCCC4)CN3)C2)cc1 [Example M00955] | 0.2 to 2 | +++ (fold selectivity values greater than 100) | ∘∘∘
18 | Cn1nnc2cc(CNC(=O)[C@@H]3C[C@H](NC4CCCCC4)CN3C(=O)[C@H](N)CCc3ccccc3)ccc21 [Example M05203] | > 2 | ++ (fold selectivity value of 10 to 100) | ∘∘
19 | NCc1ncc(CNC(=O)[C@@H]2CCCN2C(=O)[C@H](N)CCc2ccccc2)s1 [Example M05099] | > 2 | + (fold selectivity values less than 10) | ∘∘
20 | Cc1ccccc1CC[C@@H](N)C(=O)N1CCC[C@H]1C(=O)NCc1ccc(CN)cc1 [Example M00760] | > 2 | + (fold selectivity values less than 10) | ∘∘
21 | COc1ccc(C[C@@H]2C[C@@H](C(=O)NCc3ccc4c(c3)nnn4C)N(C(=O)[C@H]3CC(c4cccnc4F)CN3)C2)cc1 (stereo partly drawn) [Example M05418] | 0.2 to 2 | +++ (fold selectivity values greater than 100) | ∘∘∘
22 | COc1ccc(C[C@@H]2C[C@@H](C(=O)NCc3cc4ccncc4o3)N(C(=O)[C@H](N)CCC(=O)N3CCCC3)C2)cc1 [Example M05465] | 0.2 to 2 | +++ (fold selectivity values greater than 100) | ∘∘∘
23 | COc1ccc2c(c1)CCNC2C(=O)N1C[C@H](Cc2ccncc2)C[C@H]1C(=O)NCc1ccc2c(c1)nnn2C (stereo partly drawn) [Example M05462] | 0.2 to 2 | +++ (fold selectivity values greater than 100) | ∘∘∘
24 | Cn1nnc2cc(CNC(=O)[C@@H]3CC(Cc4ccnc(F)c4)CN3C(=O)[C@H](N)CCC(=O)N3CCCC3)ccc21 (stereo partly drawn) [Example M05315] | > 2 | ++ (fold selectivity value of 10 to 100) | ∘∘
25 | COc1ccc(C[C@@H]2C[C@@H](C(=O)NCc3cc4cnccc4o3)N(C(=O)[C@H](N)CCC(=O)N3CCCC3)C2)cc1 [Example M05404] | < 0.2 | +++ (fold selectivity values greater than 100) | ∘∘∘
26 | Cc1cccc(C[C@@H]2C[C@@H](C(=O)NCc3ccc4c(c3)nnn4C)N(C(=O)[C@H]3C[C@@H](c4ccccc4)CN3)C2)c1 [Example M05359] | 0.2 to 2 | ++ (fold selectivity value of 10 to 100) | ∘∘
27 | COc1ccc(C[C@@H]2C[C@@H](C(=O)NCc3cc4cccnc4[nH]3)N(C(=O)[C@H](N)CCC(=O)N3CCCC3)C2)cc1 [Example M05401] | > 2 | ++ (fold selectivity value of 10 to 100) | ∘∘
28 | COc1ccc(C[C@@H]2C[C@@H](C(=O)NCc3ccc4c(c3)nnn4C)N(C(=O)[C@H](N)CCc3ccc(F)cc3)C2)cc1 [Example M00949] | 0.2 to 2 | +++ (fold selectivity values greater than 100) | ∘∘
29 | Cn1nnc2cc(CNC(=O)[C@@H]3C[C@@H](Cc4ccncc4)CN3C(=O)[C@@H](CCC(=O)N3CCCC3)NS(C)(=O)=O)ccc21 [Example M05268] | > 2 | +++ (fold selectivity values greater than 100) | ∘∘∘
